Test results published in ChEMBL document CHEMBL5584236, “Development of novel bisphenol derivatives with a membrane-targeting mechanism as potent gram-positive antibacterial agents” (Eur J Med Chem, 2024).
Active and inactive are the calls of the source. No cut-off for these calls is given here.

Columns and labels:
[1] = Cytotoxicity against HEK293 cells assessed as viable cells at 50 ug/ml incubated for 24 hrs by CCK-8 assay relative to control; format: toxicity, cell-based; conditions: human, at 50 µg/mL, read-out: Activity
[2] = system: Staphylococcus aureus; assay: Antibacterial activity against Staphylococcus aureus ATCC29213 assessed as reduction in bacterial growth incubated for 22 to 24 hrs in presence of NaCl by CLSI based broth microdilution method; format: functional; conditions: time 22-24 hrs
[3] = system: Staphylococcus aureus; assay: Antibacterial activity against methicillin-resistant Staphylococcus aureus NCTC10442 assessed as reduction in bacterial growth incubated for 22 to 24 hrs in presence of ZnSO4.7H2O by CLSI based broth microdilution method; format: functional; conditions: time 22-24 hrs
[4] = system: Staphylococcus aureus; assay: Synergistic […] activity against methicillin-resistant Staphylococcus aureus NCTC10442 assessed as fractional inhibitory concentration index incubated for 22 to 24 hrs in presence of vancomycin by CLSI based broth microdilution method; format: functional; conditions: time 22-24 hrs
[5] = system: Staphylococcus aureus; assay: Antibacterial activity against Staphylococcus aureus ATCC29213 assessed as reduction in bacterial growth incubated for 22 to 24 hrs in presence of CaCl2 by CLSI based broth microdilution method; format: functional; conditions: time 22-24 hrs
[6] = system: Escherichia coli; assay: Induction of outer membrane permeabilization in Escherichia coli ATCC25922 assessed as increase in fluorescence intensity measured upto 1 hr by NPN uptake assay; format: functional, organism-based
[7] = system: Staphylococcus aureus; assay: Antibacterial activity against Staphylococcus aureus ATCC29213 assessed as reduction in microbial growth incubated for 22 to 24 hrs by CLSI based broth microdilution method; format: functional; conditions: time 22-24 hrs
[8] = system: Staphylococcus aureus; assay: Antibacterial activity against Staphylococcus aureus ATCC29213 assessed as reduction in bacterial growth incubated for 22 to 24 hrs in presence of KCl by CLSI based broth microdilution method; format: functional; conditions: time 22-24 hrs
[9] = Cytotoxicity against mouse NCTC clone 929 cells assessed as viable cells at 3.125 ug/ml incubated for 24 hrs by CCK-8 assay relative to control; format: toxicity, cell-based; conditions: NCTC clone 929 (L929) cells, at 3.125 µg/mL, read-out: Activity
[10] = system: Staphylococcus aureus; assay: Synergistic […] activity against Staphylococcus aureus ATCC29213 assessed as fractional inhibitory concentration index incubated for 22 to 24 hrs in presence of tobramycin by CLSI based broth microdilution method; format: functional; conditions: time 22-24 hrs
[11] = system: Staphylococcus aureus; assay: Bactericidal activity against Staphylococcus aureus ATCC29213 assessed as log reduction in bacterial load at 8 times of MIC measured with in 4 hrs by time kill assay; format: functional
[12] = system: Staphylococcus aureus; assay: Antibacterial activity against Staphylococcus aureus ATCC29213 assessed as reduction in bacterial growth incubated for 22 to 24 hrs in presence of MgCl2 by CLSI based broth microdilution method; format: functional; conditions: time 22-24 hrs
[13] = Cytotoxicity against HEK293 cells assessed as viable cells at 12.5 ug/ml incubated for 24 hrs by CCK-8 assay relative to control; format: toxicity, cell-based; conditions: human, at 12.5 µg/mL, read-out: Activity
[14] = system: Staphylococcus aureus; assay: Antibacterial activity against methicillin-resistant Staphylococcus aureus N315 assessed as reduction in bacterial growth incubated for 22 to 24 hrs in presence of FeCl2 by CLSI based broth microdilution method; format: functional; conditions: time 22-24 hrs
[15] = system: Acinetobacter baumannii; assay: Synergistic […] activity against Acinetobacter baumannii ATCC17978 assessed as fractional inhibitory concentration index incubated for 22 to 24 hrs in presence of tobramycin by CLSI based broth microdilution method; format: functional; conditions: time 22-24 hrs
[16] = system: Staphylococcus aureus; assay: Synergistic […] activity against Staphylococcus aureus ATCC29213 assessed as fractional inhibitory concentration index incubated for 22 to 24 hrs in presence of linezolid by CLSI based broth microdilution method; format: functional; conditions: time 22-24 hrs
[17] = system: Staphylococcus aureus; assay: Disruption of cell membrane integrity in methicillin-resistant Staphylococcus aureus NCTC10442 assessed as increase in red fluorescence at 8 time of MIC measured after 15 mins by SYTO 9/PI staining based laser confocal microscopic analysis; format: functional, organism-based
[18] = system: Staphylococcus aureus; assay: Antibacterial activity against Staphylococcus aureus ATCC29213 infected in C57BL6 mouse corneal infection model assessed as bacterial killing at 0.5 % administered topically on corneas for four times in 3 days by MHA plate counting method relative to control; format: functional; conditions: route top, time 3 day
[19] = system: Klebsiella pneumoniae; assay: Synergistic […] activity against Klebsiella pneumoniae ATCC10031 assessed as fractional inhibitory concentration index incubated for 22 to 24 hrs in presence of gentamicin by CLSI based broth microdilution method; format: functional; conditions: time 22-24 hrs
[20] = system: Staphylococcus aureus; assay: Induction of membrane permeabilization in methicillin-resistant Staphylococcus aureus NCTC10442 assessed as increase in fluorescence intensity measured upto 60 mins by SYTOX green assay; format: functional, organism-based
[21] = system: Acinetobacter baumannii; assay: Synergistic […] activity against Acinetobacter baumannii ATCC17978 assessed as fractional inhibitory concentration index incubated for 22 to 24 hrs in presence of gentamicin by CLSI based broth microdilution method; format: functional; conditions: time 22-24 hrs
[22] = Cytotoxicity against mouse NCTC clone 929 cells assessed as viable cells at 12.5 ug/ml incubated for 24 hrs by CCK-8 assay relative to control; format: toxicity, cell-based; conditions: NCTC clone 929 (L929) cells, at 12.5 µg/mL, read-out: Activity
[23] = system: Klebsiella pneumoniae; assay: Synergistic […] activity against Klebsiella pneumoniae ATCC10031 assessed as fractional inhibitory concentration index incubated for 22 to 24 hrs in presence of amikacin by CLSI based broth microdilution method; format: functional; conditions: time 22-24 hrs
[24] = system: Staphylococcus aureus; assay: Antibacterial activity against methicillin-resistant Staphylococcus aureus N315 assessed as reduction in bacterial growth incubated for 22 to 24 hrs in presence of ZnSO4.7H2O by CLSI based broth microdilution method; format: functional; conditions: time 22-24 hrs
[25] = system: Staphylococcus aureus; assay: Synergistic […] activity against Staphylococcus aureus ATCC29213 assessed as fractional inhibitory concentration index incubated for 22 to 24 hrs in presence of teicoplanin by CLSI based broth microdilution method; format: functional; conditions: time 22-24 hrs
[26] = system: Staphylococcus aureus; assay: Antibacterial activity against methicillin-resistant Staphylococcus aureus N315 assessed as reduction in microbial growth incubated for 22 to 24 hrs by CLSI based broth microdilution method; format: functional; conditions: time 22-24 hrs
[27] = Cytotoxicity against HEK293 cells assessed reduction in cell viability incubated for 24 hrs by CCK-8 assay; format: toxicity, cell-based; conditions: human
[28] = Cytotoxicity against mouse NCTC clone 929 cells assessed as viable cells at 6.25 ug/ml incubated for 24 hrs by CCK-8 assay relative to control; format: toxicity, cell-based; conditions: NCTC clone 929 (L929) cells, at 6.25 µg/mL, read-out: Activity
[29] = system: Staphylococcus aureus; assay: Synergistic […] activity against methicillin-resistant Staphylococcus aureus NCTC10442 assessed as fractional inhibitory concentration index incubated for 22 to 24 hrs in presence of mupirocin by CLSI based broth microdilution method; format: functional; conditions: time 22-24 hrs
[30] = Cytotoxicity against mouse NCTC clone 929 cells assessed as viable cells at 50 ug/ml incubated for 24 hrs by CCK-8 assay relative to control; format: toxicity, cell-based; conditions: NCTC clone 929 (L929) cells, at 50 µg/mL, read-out: Activity
[31] = Cytotoxicity against mouse NCTC clone 929 cells assessed as viable cells at 25 ug/ml incubated for 24 hrs by CCK-8 assay relative to control; format: toxicity, cell-based; conditions: NCTC clone 929 (L929) cells, at 25 µg/mL, read-out: Activity
[32] = system: Escherichia coli; assay: Antibacterial activity against Escherichia coli ATCC25922 assessed as reduction in microbial growth incubated for 22 to 24 hrs by CLSI based broth microdilution method; format: functional; conditions: time 22-24 hrs

COC(=O)[C@H](CCCNC(=N)N)NC(=O)[C@H](CCCNC(=N)N)NC(=O)COc1ccc(S(=O)(=O)c2ccc(OC/C=C(/C)CCC=C(C)C)cc2)cc1
viability at 24 h, 50 ug/ml [1]: 91.5% | MIC [2]: 1.56 µg/mL | MIC [3]: 1.56 µg/mL | fractional inhibitory concentration index (FICI) [4]: 0.5 | MIC [5]: 3.12 µg/mL | Activity [6]: Dose-Dependent Effect | MIC [7]: 1.56 µg/mL | MIC [8]: 1.56 µg/mL | viability at 24 h, 3.125 ug/ml [9]: 92.6% | fractional inhibitory concentration index (FICI) [10]: 0.38 | log(activity) [11]: 3 | MIC [12]: 1.56 µg/mL | viability at 24 h, 12.5 ug/ml [13]: 94.2% | MIC [14]: 1.56 µg/mL | fractional inhibitory concentration index (FICI) [15]: 0.56 | fractional inhibitory concentration index (FICI) [16]: 0.28 | Activity [17]: Active | Activity [18]: 99.99% | fractional inhibitory concentration index (FICI) [19]: 0.5 | Activity [20]: Dose-Dependent Effect | fractional inhibitory concentration index (FICI) [21]: 0.28 | viability at 24 h, 12.5 ug/ml [22]: 88.9% | fractional inhibitory concentration index (FICI) [23]: 0.31 | MIC [24]: 1.56 µg/mL | fractional inhibitory concentration index (FICI) [25]: 0.31 | MIC [26]: 0.78 µg/mL | CC50 at 24 h [27]: > 100 µg/mL | viability at 24 h, 6.25 ug/ml [28]: 91.5% | fractional inhibitory concentration index (FICI) [29]: 1 | viability at 24 h, 50 ug/ml [30]: 84.7% | viability at 24 h, 25 ug/ml [31]: 87.6% | MIC [32]: 6.25 µg/mL
